The compounds below were run against T1, active p38 alpha enzyme (Upstate Biotechnology) (Homo sapiens, UniProt Q16539) (assay: p38α biochemical assay (ATP turnover, luminescent detection, Cambrex PKlight)). Conditions: p38α biochemical assay, Table 1 Biological Activity.
T1 construct: purchased Upstate Biotechnology
Summary of the method: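 Compounds in DMSO are added to active p38 alpha with MapkapK2 whole protein and ATP at 1.4 uM final. Reactions then run for 2 hours at 30C. A luminescent reagent is added last to quantify total ATP consumed.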

T1 sequence (Q16539 whole entry): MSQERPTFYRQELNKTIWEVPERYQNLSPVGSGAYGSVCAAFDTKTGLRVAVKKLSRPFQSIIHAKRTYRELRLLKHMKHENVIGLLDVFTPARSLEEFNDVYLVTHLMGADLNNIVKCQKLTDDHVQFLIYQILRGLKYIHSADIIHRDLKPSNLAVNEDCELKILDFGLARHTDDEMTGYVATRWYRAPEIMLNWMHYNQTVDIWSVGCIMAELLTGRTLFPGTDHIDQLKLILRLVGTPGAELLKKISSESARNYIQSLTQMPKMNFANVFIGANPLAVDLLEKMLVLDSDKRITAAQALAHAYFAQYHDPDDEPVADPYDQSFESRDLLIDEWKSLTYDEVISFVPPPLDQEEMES

SMILES | IC50 [nM]
CC(C)NC(=O)c1csc(-c2c(-c3ccc(F)cc3)noc2CNC(=O)Cc2c(F)cccc2F)n1 [Example 668] | > 1000
CC(C)NC(=O)c1csc(-c2c(-c3ccc(F)cc3)noc2CNC(=O)c2cccc3ccccc23)n1 [Example 669] | ≤ 1000
CC(C)NC(=O)c1csc(-c2c(-c3ccc(F)cc3)noc2CNC(=O)c2ccc(Cl)cc2O)n1 [Example 670] | > 1000
CC(C)NC(=O)c1csc(-c2c(-c3ccc(F)cc3)noc2CNC(=O)c2cc(Cl)ccc2O)n1 [Example 671] | > 1000
CC(C)NC(=O)c1csc(-c2c(-c3ccc(F)cc3)noc2CNC(=O)c2ccc3ncccc3c2)n1 [Example 672] | > 1000
CC(C)NC(=O)c1csc(-c2c(-c3ccc(F)cc3)noc2CNC(=O)c2cnc(O)c(Cl)c2)n1 [Example 673] | > 1000
CC(C)NC(=O)c1csc(-c2c(-c3ccc(F)cc3)noc2CNC(=O)c2ccc(F)cc2Cl)n1 [Example 674] | > 1000
CC(C)NC(=O)c1csc(-c2c(-c3ccc(F)cc3)noc2CNC(=O)c2c(F)cccc2Cl)n1 [Example 675] | > 1000
CC(C)NC(=O)c1csc(-c2c(-c3ccc(F)cc3)noc2CNC(=O)CNC(=O)OC(C)(C)C)n1 [Example 676] | > 1000
Cc1c(C(=O)NCc2onc(-c3ccc(F)cc3)c2-c2nc(C(=O)NC(C)C)cs2)oc2ccccc12 [Example 677] | > 1000
CC(C)NC(=O)c1csc(-c2c(-c3ccc(F)cc3)noc2CNC(=O)CC2Cc3ccccc3C2)n1 [Example 678] | > 1000
CC(C)NC(=O)c1csc(-c2c(-c3ccc(F)cc3)noc2CNC(=O)C2CCc3ccccc3C2)n1 (stereo not drawn) [Example 679] | > 1000
COc1ccccc1/C=C/C(=O)NCc1onc(-c2ccc(F)cc2)c1-c1nc(C(=O)NC(C)C)cs1 [Example 680] | > 1000
CC(C)NC(=O)c1csc(-c2c(-c3ccc(F)cc3)noc2CNC(=O)c2csc3ccccc23)n1 [Example 681] | > 1000
CC(C)NC(=O)c1csc(-c2c(-c3ccc(F)cc3)noc2CNC(=O)c2cc3ccccc3s2)n1 [Example 682] | > 1000
CCCCc1ccc(C(=O)NCc2onc(-c3ccc(F)cc3)c2-c2nc(C(=O)NC(C)C)cs2)cc1 [Example 683] | > 1000

SMILES | IC50 [nM]
CC(C)NC(=O)c1csc(-c2c(-c3ccc(F)cc3)noc2CNC(=O)c2ccc(C(C)(C)C)cc2)n1 [Example 684] | > 1000
CC(C)NC(=O)c1csc(-c2c(-c3ccc(F)cc3)noc2CNC(=O)c2ccc(N(C)C=O)cc2)n1 [Example 685] | > 1000
CC(=O)Nc1cccc(C(=O)NCc2onc(-c3ccc(F)cc3)c2-c2nc(C(=O)NC(C)C)cs2)c1 [Example 686] | > 1000
CC(C)NC(=O)c1csc(-c2c(-c3ccc(F)cc3)noc2CNC(=O)COc2ccccc2C=O)n1 [Example 687] | > 1000
CC(=O)Oc1ccc(C(=O)NCc2onc(-c3ccc(F)cc3)c2-c2nc(C(=O)NC(C)C)cs2)cc1 [Example 688] | > 1000
COC(=O)c1ccc(C(=O)NCc2onc(-c3ccc(F)cc3)c2-c2nc(C(=O)NC(C)C)cs2)cc1 [Example 689] | > 1000
CC(=O)Oc1cccc(C(=O)NCc2onc(-c3ccc(F)cc3)c2-c2nc(C(=O)NC(C)C)cs2)c1 [Example 690] | > 1000
CC(=O)Oc1ccccc1C(=O)NCc1onc(-c2ccc(F)cc2)c1-c1nc(C(=O)NC(C)C)cs1 [Example 691] | ≤ 1000
CC(C)NC(=O)c1csc(-c2c(-c3ccc(F)cc3)noc2CNC(=O)Cc2ccc3c(c2)OCO3)n1 [Example 692] | > 1000
CCCOc1ccc(C(=O)NCc2onc(-c3ccc(F)cc3)c2-c2nc(C(=O)NC(C)C)cs2)cc1 [Example 693] | > 1000
CC(C)NC(=O)c1csc(-c2c(-c3ccc(F)cc3)noc2CNC(=O)c2ccc(OC(C)C)cc2)n1 [Example 694] | > 1000
Cc1cccc([N+](=O)[O-])c1C(=O)NCc1onc(-c2ccc(F)cc2)c1-c1nc(C(=O)NC(C)C)cs1 [Example 695] | > 1000
Cc1cccc(C(=O)NCc2onc(-c3ccc(F)cc3)c2-c2nc(C(=O)NC(C)C)cs2)c1[N+](=O)[O-] [Example 696] | > 1000
Cc1ccc([N+](=O)[O-])c(C(=O)NCc2onc(-c3ccc(F)cc3)c2-c2nc(C(=O)NC(C)C)cs2)c1 [Example 697] | ≤ 1000
Cc1c(C(=O)NCc2onc(-c3ccc(F)cc3)c2-c2nc(C(=O)NC(C)C)cs2)cccc1[N+](=O)[O-] [Example 698] | > 1000
COc1ccc(OC)c(C(=O)NCc2onc(-c3ccc(F)cc3)c2-c2nc(C(=O)NC(C)C)cs2)c1 [Example 699] | > 1000

Further lines, results first:

IC50 [nM] | SMILES
> 1000 | COc1ccc(C(=O)NCc2onc(-c3ccc(F)cc3)c2-c2nc(C(=O)NC(C)C)cs2)c(OC)c1 [Example 700]
> 1000 | COc1cccc(OC)c1C(=O)NCc1onc(-c2ccc(F)cc2)c1-c1nc(C(=O)NC(C)C)cs1 [Example 701]
> 1000 | COc1cc(OC)cc(C(=O)NCc2onc(-c3ccc(F)cc3)c2-c2nc(C(=O)NC(C)C)cs2)c1 [Example 702]
> 1000 | COc1cccc(C(=O)NCc2onc(-c3ccc(F)cc3)c2-c2nc(C(=O)NC(C)C)cs2)c1OC [Example 703]
> 1000 | Cc1ccc(SCC(=O)NCc2onc(-c3ccc(F)cc3)c2-c2nc(C(=O)NC(C)C)cs2)cc1 [Example 704]
> 1000 | CC(C)NC(=O)c1csc(-c2c(-c3ccc(F)cc3)noc2CNC(=O)/C=C/c2ccc(Cl)cc2)n1 [Example 705]
> 1000 | CC(C)NC(=O)c1csc(-c2c(-c3ccc(F)cc3)noc2CNC(=O)/C=C/c2ccccc2Cl)n1 [Example 706]
> 1000 | CC(C)NC(=O)c1csc(-c2c(-c3ccc(F)cc3)noc2CNC(=O)c2ccc([N+](=O)[O-])c(O)c2)n1 [Example 707]
> 1000 | CC(C)NC(=O)c1csc(-c2c(-c3ccc(F)cc3)noc2CNC(=O)c2cc(O)ccc2[N+](=O)[O-])n1 [Example 708]
> 1000 | CC(C)NC(=O)c1csc(-c2c(-c3ccc(F)cc3)noc2CNC(=O)c2cc([N+](=O)[O-])ccc2O)n1 [Example 709]
> 1000 | CC(C)NC(=O)c1csc(-c2c(-c3ccc(F)cc3)noc2CNC(=O)c2cc([N+](=O)[O-])ccc2F)n1 [Example 710]
> 1000 | CC(C)NC(=O)c1csc(-c2c(-c3ccc(F)cc3)noc2CNC(=O)c2cc(F)ccc2[N+](=O)[O-])n1 [Example 711]
> 1000 | CC(C)NC(=O)c1csc(-c2c(-c3ccc(F)cc3)noc2CNC(=O)c2ccc(F)c([N+](=O)[O-])c2)n1 [Example 712]
> 1000 | COc1ccc(Cl)cc1C(=O)NCc1onc(-c2ccc(F)cc2)c1-c1nc(C(=O)NC(C)C)cs1 [Example 713]
> 1000 | COc1cc(Cl)ccc1C(=O)NCc1onc(-c2ccc(F)cc2)c1-c1nc(C(=O)NC(C)C)cs1 [Example 714]
> 1000 | CC(C)NC(=O)c1csc(-c2c(-c3ccc(F)cc3)noc2CNC(=O)Cc2ccc(O)c(Cl)c2)n1 [Example 715]
> 1000 | COc1cc(C(=O)NCc2onc(-c3ccc(F)cc3)c2-c2nc(C(=O)NC(C)C)cs2)cc(Cl)n1 [Example 716]
> 1000 | CC(C)NC(=O)c1csc(-c2c(-c3ccc(F)cc3)noc2CNC(C=O)c2ccc3cc(O)ccc3c2)n1 (stereo not drawn) [Example 717]
> 1000 | CC(C)NC(=O)c1csc(-c2c(-c3ccc(F)cc3)noc2CNC(=O)c2c(O)ccc3ccccc23)n1 [Example 718]

IC50 [nM] | SMILES
> 1000 | CC(C)NC(=O)c1csc(-c2c(-c3ccc(F)cc3)noc2CNC(=O)c2cc3ccccc3cc2O)n1 [Example 719]
> 1000 | CC(C)NC(=O)c1csc(-c2c(-c3ccc(F)cc3)noc2CNC(=O)c2ccc3ccccc3c2O)n1 [Example 720]
> 1000 | CC(C)NC(=O)c1csc(-c2c(-c3ccc(F)cc3)noc2CNC(=O)c2ccc3cccc(O)c3n2)n1 [Example 721]
> 1000 | CC(C)NC(=O)c1csc(-c2c(-c3ccc(F)cc3)noc2CNC(=O)C(C)NC(=O)OC(C)(C)C)n1 (stereo not drawn) [Example 722]
> 1000 | CC(C)NC(=O)c1csc(-c2c(-c3ccc(F)cc3)noc2CNC(=O)C(C)NC(=O)OC(C)(C)C)n1 (stereo not drawn) [Example 723]
> 1000 | CC(C)NC(=O)c1csc(-c2c(-c3ccc(F)cc3)noc2CNC(=O)c2ccccc2C(F)(F)F)n1 [Example 724]
> 1000 | CC(C)NC(=O)c1csc(-c2c(-c3ccc(F)cc3)noc2CNC(=O)CCc2nc3ccccc3[nH]2)n1 [Example 725]
> 1000 | CC(C)NC(=O)c1csc(-c2c(-c3ccc(F)cc3)noc2CNC(=O)c2cccc(Cl)c2Cl)n1 [Example 726]
> 1000 | CC(C)NC(=O)c1csc(-c2c(-c3ccc(F)cc3)noc2CNC(=O)c2ccc(Cl)cc2Cl)n1 [Example 727]
> 1000 | CC(C)NC(=O)c1csc(-c2c(-c3ccc(F)cc3)noc2CNC(=O)c2cc(Cl)ccc2Cl)n1 [Example 728]
> 1000 | CC(C)NC(=O)c1csc(-c2c(-c3ccc(F)cc3)noc2CNC(=O)c2cc(F)c(F)c(O)c2F)n1 [Example 729]
> 1000 | CC(C)NC(=O)c1csc(-c2c(-c3ccc(F)cc3)noc2CNC(=O)/C=C/c2ccc3c(c2)OCO3)n1 [Example 730]
> 1000 | Cc1ccc(C(=O)CCC(=O)NCc2onc(-c3ccc(F)cc3)c2-c2nc(C(=O)NC(C)C)cs2)cc1 [Example 731]
> 1000 | CCCCCc1ccc(C(=O)NCc2onc(-c3ccc(F)cc3)c2-c2nc(C(=O)NC(C)C)cs2)cc1 [Example 732]
> 1000 | CC(C)NC(=O)c1csc(-c2c(-c3ccc(F)cc3)noc2CNC(=O)c2cc(F)c(F)cc2Cl)n1 [Example 733]
> 1000 | CC(C)NC(=O)c1csc(-c2c(-c3ccc(F)cc3)noc2CNC(=O)c2cc(F)c(Cl)cc2F)n1 [Example 734]
> 1000 | CCN(CC)c1ccc(C(=O)NCc2onc(-c3ccc(F)cc3)c2-c2nc(C(=O)NC(C)C)cs2)cc1 [Example 735]
> 1000 | COc1cc(/C=C/C(=O)NCc2onc(-c3ccc(F)cc3)c2-c2nc(C(=O)NC(C)C)cs2)ccc1O [Example 736]
